In the NIST ThermoML archive (doi:10.1016/j.tca.2017.04.014):
± gives the expanded uncertainty stated by the source.

Experiment: xn = mol fraction of the nth substance listed
Settings: 298.15 K, 101.3 kPa, Crystal

[O-2].[O-2].[Th+4] [thorium dioxide] + [O-2].[O-2].[U+4]
mass density [kg/m3]
Settings | x1 = 0.3 | x1 = 0.5 | x1 = 0.6 | x1 = 0.7 | x1 = 0.8 | x1 = 0.9 | x1 = 1
From pellet mass and volume | 8570 ± 1900 | 8600 ± 1700 | 8410 ± 1700 | 9020 ± 1800 | 9240 ± 1800 | 8800 ± 1800 | 9390 ± 1900
X-ray diffraction | 10810 ± 210 | 10810 ± 140 | 10640 ± 130 | 10480 ± 100 | 10350 ± 70 | 10170 ± 50 | 10000 ± 30
buoyancy | 8960 ± 1900 | 8780 ± 1800 | 8690 ± 1800 | 9290 ± 1900 | 9590 ± 1900 | 9210 ± 1800 | 9430 ± 1900
